Earlier results as cited in patent publication US20070026067A1, “Liquid formulations for controlled delivery of benzisoxazole derivatives” (priority 2005, published 2007).

Columns and labels:
[1] = in vivo

Row | half-life [1] | SMILES | solubility in water
1 | about one | Cc1nc2n(c(=O)c1CCN1CCC(c3noc4cc(F)ccc34)CC1)CCCC2O (stereo not drawn) [Paliperidone] | practically insoluble
2 |  | Cc1nc2n(c(=O)c1CCN1CCC(c3noc4cc(F)ccc34)CC1)CCCC2 [Risperidone] | practically insoluble
